# Patent publication US10618869B2, “Oligo-benzamide compounds and their use” (The Board of Regents of the University of Texas System, priority 2010, dated 2020)
# “Also recorded” adds a separate entry of the source.
# Legend:
# [1] = Storage stability of D2 in DMSO; assay type: physicochemical; conditions: room temperature and −70° C., storage 60 days
# [2] = Stability of D2 in culture and in LNCaP cell lysate (HPLC); assay type: in vitro ADME
# From the text: FIGS. 4A-F. (FIG. 4A) Chemical structure of the bis-benzamide (D2). (FIG. 4B) the lowest-energy conformation of D2. (FIG. 4C) the stereoview of the superimposition of D2 on a helical turn.
# [3] = system: DHT-regulated transcripts; assay: DHT-regulated transcripts, Illumina platform, LNCaP cells; assay type: cell-based; conditions: of the 341 transcripts significantly upregulated by DHT
# Protocol: FIG. 8. Effect of D2 on DHT-induced transcription: RNA from LNCaP cells untreated or treated with DHT in the absence and presence of D2 were evaluated by the Illumina platform for DHT-regulated transcripts. […] Expression levels of selected genes are shown in the right panel, including AR-regulated genes and those involved in cell proliferation.
# (§1) FIG. 8 confirms these findings by QPCR experiment evaluating the effect of D1 and D2 on DHT-induced TMPRSS and PSA gene expression at the RNA level in LNCaP cells (bottom left panel) and by western blot analyses as evaluated by the effect of D1 and D2 on the expression of PSA, androgen receptor and actin in LAPC4 cells at the protein level. […] Confirmation of these findings were obtained by QPCR and western blot analyses.
# PSA-luciferase promoter = assay: DHT-induced transcription from PSA-luciferase promoter; assay type: cell-based; conditions: LAPC4 cells
# From the text: (§2) FIG. 9. […] This effect of D2 could be rescued by overexpression of AR (bottom left panel) or PELP1 (bottom right panel).
# (§3) At the protein level, D2, but not D1, was able to block DHT-induced expression of PSA protein. Again, the suppresion of DHT-induced transcription from an ARE could be overcome by overexpression of either AR or PELP1 ([…]). Overexpression of PELP1 was able to rescue the D2-mediated suppression of DHT-induced transcription nearly back to baseline.
# ARE-luciferase reporter = assay: DHT-induced transcription from minimal ARE-luciferase reporter; assay type: cell-based; conditions: LNCaP, CWR22v1 and LAPC4 cell lines
# From the text: as §2, §3
# PSA and TMPRSS promoter = assay: QPCR of PSA and TMPRSS, DHT-induced; assay type: cell-based
# From the text: as §1, §3
# [4] = system: AR binding on PSA promoter; assay: ChIP assay of AR binding on PSA promoter; assay type: cell-based
# From the text: as §2, §3
# [5] = system: PCa cell lines that contain AR; assay: DHT-induced proliferation of prostate cancer cells (MTT assay); assay type: cell-based
# Protocol: (§4) FIGS. 10A-E. D2 blocks proliferation of prostate cancer cells in vitro and in vivo (a) Effect of pretreatment with 100 nM of D1 and D2 on DHT-induced proliferation in multiple prostate cancer cell lines in MTT assay. Numbers are normalized to a baseline of 100, which represents the untreated rate of proliferation. (b) Effect of pretreatment with 100 nM of D1 and D2 on DHT-induced proliferation in LNCaPcells on a Cyquant assay. (c) Dose dependent curve of D2 on proliferation of LAPC4 cells. (d) Rescue of DHT induced proliferation by overexpression of PELP1 following suppression of DHT induced proliferation with 100 nM of D2. (e). Effect of direct intratumoral injections of D1 and D2 on the proliferation of prostate cancer xenografts in animal models: Following establishment of subcutaneous xenografts in animal models, daily direct intratumoral injections of D1 and D2 were performed. Bioluminesence imaging was used to track the growth of the tumors and the effect of D1 and D2 quantitated as shown in the graph.
# (§5) The importance of PELP1 and AR interaction on DHT-mediated proliferation of prostate cancer cells were confirmed using rescue experiments, where D2 suppression of DHT-mediated proliferation was overcome by overexpression of PELP1 in LNCaP PCa cells.
# (§6) In this experiment, cells were plated (2-10×10^3/well) in 96 well plates and subjected to androgen deprivation for 48 hours with phenol-red free RPMI and 1% charcoal stripped fetal bovine serum (CSF). Cells were then treated with either ethanol, EGF or DHT as a positive control for 48 hours. Peptidomimetics were added 2 hours prior to treatment. Cell proliferation was measured using the MTT colorimetric assay.
# Cells were plated (2-10×10^3/well) in 96-well plates and subjected to androgen deprivation for 48 hours with phenol-red free RPMI and 1% charcoal stripped fetal bovine serum (CSF). Cells were then treated with either ethanol or DHT as a positive control for 48 hours Peptidomimetics were added 2 hours prior to treatment. Cell proliferation was measured using the MTT colorimetric assay.
# [6] = system: AR-negative PCa cell lines such as DU145 or PC3; assay: DHT-induced proliferation of AR-negative PCa cell lines; assay type: cell-based
# Protocol: as §4, §5
# PCa cells = assay: EGF or LPA-induced proliferation of PCa cells (MTT assay); assay type: cell-based; conditions: peptidomimetic added 2 hours prior
# Protocol: FIG. 11. […] D2 does block DHT-induced proliferation of prostate cancer cells.
# as §6
# [7] = system: prostate cancer xenografts; assay: Subcutaneous prostate cancer xenografts; assay type: in vivo, nude mice
# Protocol: as §4
# They have shown that this synthetic peptidomimetic D2 is capable of blocking AR-PELP-1 interaction, nuclear translocation of AR, AR mediated genomic signaling as well as DHT-mediated proliferation of prostate cancer cells in vitro. The IC50 of D2 appears to be around 40 nM. […]
# erk = assay: DHT-mediated non-genomic activation of erk; assay type: cell-based; conditions: FIG. 12
# prostate cancer cells = assay: Toxicity in vitro and in vivo
# From the text: The peptidomimetics of the present invention are non-toxic under in vitro and in vivo conditions. The development of these peptidomimetics represents a quantum leap in the development of a drug to target AR signaling. […] In addition to improvements in the helical face and presentation of the leucines, the inventors have proven efficacy of this system against prostate cancer cell proliferation both in vitro and in vivo. Thus, in contrast to existing technology, the inventors have developed and tested an active peptidomimetic against prostate cancer and other androgen receptor involved cancers.
# They have shown that this synthetic peptidomimetic D2 is capable of blocking AR-PELP-1 interaction, nuclear translocation of AR, AR mediated genomic signaling as well as DHT-mediated proliferation of prostate cancer cells in vitro. The IC50 of D2 appears to be around 40 nM. The effect of the D2 peptidomimetic appears to be specific to blocking AR-PELP-1 interaction, as overexpression of AR or PELP-1 may overcome D2-mediated blockade. […] In comparison, administration of either control peptidomimetics or control soluent has no effect on the growth of prostate cancer cells in vitro or in vivo. In addition, the inventors have generated and tested hundreds of variants of D2 and have identified related peptidomimetics with similar or equivalent potency.
smiles,measurement,setting,value
COC(=O)c1ccc(NC(=O)c2ccc([N+](=O)[O-])c(OCC(C)C)c2)c(OCC(C)C)c1 [D2],stability in DMSO,[1],stable in DMSO
same,stability in cell lysate,"[2]; LNCaP cell lysate, 37° C., 7 days",stable in cell lysate of LNCaP over 7 days
same,stability in culture (HPLC),"[2]; in culture, FIG. 4E",single peak on the HPLC
same,DHT-upregulated genes reduced back to baseline,[3],219 genes
same,DHT-induced transcription from PSA-luciferase promoter,PSA-luciferase promoter,able to block; also recorded: block DHT-Induced gene expression
same,DHT-induced transcription from minimal ARE-luciferase reporter,ARE-luciferase reporter,able to block; also recorded: block DHT-Induced gene expression
same,DHT-induced transcription from ARE-driven promoters at RNA level (QPCR),PSA and TMPRSS promoter,block DHT-induced transcription from ARE-driven promoters was confirmed
same,DHT-induced AR binding on PSA promoter (ChIP),[4],blocked DHT-induced AR binding; also recorded: blocked AR binding to its cognate DNA sequence
same,"activity on the proliferation of prostate cancer cells (FIGS. 17, 19A-N)","[5]; DHT-induced proliferation, MTT assay, structure-function series",good activity
same,DHT-induced proliferation of PCa cells,"[5]; LNCaP, LAPC4, C4-2, RWPE-1, CWR22v1, VCaP, MDAPCa 2b, pretreatment (100 nM in FIG. 10)",prevented; also recorded: does block
same,IC50,"[5]; MTT assays, in vitro, read-out: IC50, DHT-mediated proliferation of PCa cells",~40 nM
same,DHT-induced proliferation of AR-negative PCa cell lines,[6],but not AR-negative PCa cell lines
same,EGF or LPA-induced proliferation of PCa cells,PCa cells,no effect; also recorded: does not affect
same,growth of prostate cancer cells implanted subcutaneously,"[7]; nude mice, intratumoral or intraperitoneal administration",significantly abrogate the growth
same,AR-PELP1 complex formation in xenograft tumors,[7]; protein extracts of tumors after daily intratumoral injections,biologically active in blocking AR-PELP1 interaction; also recorded: able to block
same,DHT-mediated non-genomic activation of erk,erk,no effect; also recorded: does not block
same,toxicity,prostate cancer cells,non-toxic to prostate cancer cells
